Measurements: ChEMBL document CHEMBL1909046, “DrugMatrix in vitro pharmacology data”

Key:
[1] = DRUGMATRIX: Nicotinic Acetylcholine radioligand binding (ligand: [125I] Epibatidine); format: cell membranes, Membrane; conditions: imr-32; Not Active = under 50% inhibition at 10 µM
[2] = DRUGMATRIX: Interleukin IL-1 radioligand binding (ligand: [125I] interleukin 1beta); format: cell membranes, Membrane; conditions: nih3t3; Not Active = under 50% inhibition at 10 µM
[3] = DRUGMATRIX: Purinergic P2X radioligand binding (ligand: [3H] alpha, beta-Methylene-ATP); format: cell membranes, Oryctolagus cuniculus, New Zealand albino, Urinary bladder, Membrane; conditions: Not Active = under 50% inhibition at 10 µM
[4] = biological target: Beta-1 adrenergic receptor (Homo sapiens, UniProt P08588); experiment: DRUGMATRIX: Adrenergic beta1 radioligand binding (ligand: [125I] Cyanopindolol); format: cell membranes, CHO-K1, Membrane; conditions: cho-k1; Not Active = under 50% inhibition at 10 µM
Sequence of Beta-1 adrenergic receptor (P08588 whole entry): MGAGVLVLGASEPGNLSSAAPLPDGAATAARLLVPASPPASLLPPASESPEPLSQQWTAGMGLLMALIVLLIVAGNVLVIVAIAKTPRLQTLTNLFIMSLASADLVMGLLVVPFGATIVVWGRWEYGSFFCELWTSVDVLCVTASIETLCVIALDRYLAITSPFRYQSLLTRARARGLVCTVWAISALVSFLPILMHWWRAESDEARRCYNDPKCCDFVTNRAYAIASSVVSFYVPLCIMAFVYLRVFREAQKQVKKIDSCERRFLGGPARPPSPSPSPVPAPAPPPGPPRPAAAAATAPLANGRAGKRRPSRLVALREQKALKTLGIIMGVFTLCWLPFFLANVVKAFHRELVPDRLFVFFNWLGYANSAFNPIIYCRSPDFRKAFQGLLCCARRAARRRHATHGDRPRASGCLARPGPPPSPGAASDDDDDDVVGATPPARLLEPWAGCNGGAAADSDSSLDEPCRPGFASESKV

[5] = DRUGMATRIX: Serotonin (5-Hydroxytryptamine) 5-HT3 radioligand binding (ligand: [3H] GR-65630); format: cell membranes, Membrane; conditions: hek293; Not Active = under 50% inhibition at 10 µM
[6] = DRUGMATRIX: Phorbol Ester radioligand binding (ligand: [3H] PDBu); format: cell membranes, Mus musculus, ICR, Brain, Membrane; conditions: Not Active = under 50% inhibition at 10 µM
Glucocorticoid receptor = biological target: T1, Glucocorticoid receptor (Homo sapiens, UniProt P04150); conditions: hela s3; also: in other assays of this panel Not Active means under 50% inhibition at 10 µM
T1 sequence (P04150 whole entry): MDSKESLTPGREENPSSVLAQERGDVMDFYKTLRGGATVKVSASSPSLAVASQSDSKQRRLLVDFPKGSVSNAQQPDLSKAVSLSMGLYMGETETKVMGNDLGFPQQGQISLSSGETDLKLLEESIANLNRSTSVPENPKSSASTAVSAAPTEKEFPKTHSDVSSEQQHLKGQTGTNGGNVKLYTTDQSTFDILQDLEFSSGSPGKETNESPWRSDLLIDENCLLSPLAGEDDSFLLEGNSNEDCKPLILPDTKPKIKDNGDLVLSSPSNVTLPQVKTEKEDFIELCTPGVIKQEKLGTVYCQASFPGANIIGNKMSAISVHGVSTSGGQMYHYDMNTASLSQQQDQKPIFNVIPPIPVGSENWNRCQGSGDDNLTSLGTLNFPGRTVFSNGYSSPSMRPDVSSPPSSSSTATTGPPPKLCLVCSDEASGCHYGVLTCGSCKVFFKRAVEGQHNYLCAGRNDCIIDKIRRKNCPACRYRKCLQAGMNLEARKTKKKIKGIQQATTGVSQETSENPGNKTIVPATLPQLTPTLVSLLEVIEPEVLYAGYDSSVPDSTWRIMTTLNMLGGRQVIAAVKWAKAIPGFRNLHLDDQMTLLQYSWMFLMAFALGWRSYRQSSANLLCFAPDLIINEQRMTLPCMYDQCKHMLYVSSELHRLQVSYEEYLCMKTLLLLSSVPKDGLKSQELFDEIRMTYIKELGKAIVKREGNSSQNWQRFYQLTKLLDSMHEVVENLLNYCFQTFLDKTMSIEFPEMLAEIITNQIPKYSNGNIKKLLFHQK

[7] = DRUGMATRIX: Imidazoline I2, Central radioligand binding (ligand: [3H] Idazoxan); format: cell membranes, Rattus norvegicus, Wistar, Cerebral cortex, Membrane; conditions: Not Active = under 50% inhibition at 10 µM
[8] = biological target: Sodium-dependent dopamine transporter (Homo sapiens, UniProt Q01959); experiment: DRUGMATRIX: Dopamine Transporter radioligand binding (ligand: [125I] RTI-55); format: cell membranes, CHO-K1, Membrane; conditions: cho-k1; Not Active = under 50% inhibition at 10 µM
Sequence of Sodium-dependent dopamine transporter (Q01959 whole entry): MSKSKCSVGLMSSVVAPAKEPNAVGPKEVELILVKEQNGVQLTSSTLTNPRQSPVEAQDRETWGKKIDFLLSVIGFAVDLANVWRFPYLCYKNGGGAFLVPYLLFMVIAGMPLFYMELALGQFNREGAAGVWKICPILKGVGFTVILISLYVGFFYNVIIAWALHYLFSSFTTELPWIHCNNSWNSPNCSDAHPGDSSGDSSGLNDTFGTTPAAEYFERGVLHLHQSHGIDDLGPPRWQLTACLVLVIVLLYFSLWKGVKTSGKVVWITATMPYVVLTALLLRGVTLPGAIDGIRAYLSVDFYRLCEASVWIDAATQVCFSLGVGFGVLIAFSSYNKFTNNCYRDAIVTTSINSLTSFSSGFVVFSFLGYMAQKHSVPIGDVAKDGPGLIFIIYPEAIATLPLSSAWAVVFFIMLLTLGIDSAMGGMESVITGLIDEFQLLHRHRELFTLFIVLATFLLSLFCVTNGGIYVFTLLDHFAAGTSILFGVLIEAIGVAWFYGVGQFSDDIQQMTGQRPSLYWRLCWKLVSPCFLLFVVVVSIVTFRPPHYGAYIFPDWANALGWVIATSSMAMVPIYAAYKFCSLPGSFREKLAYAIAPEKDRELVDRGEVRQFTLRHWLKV

Row | Structure (SMILES) | IC50 [1] | Ki [1] | IC50 [2] | Ki [2] | IC50 [3] | Ki [3] | IC50 [4] | IC50 [5] | Ki [5] | IC50 [6] | Ki [6] | IC50 (Glucocorticoid receptor) | IC50 [7] | Ki [7] | IC50 [8] | IC50 ([7]; read-out: IC50) [µM] | Ki ([7]; read-out: Ki) [µM]
1 | CCCCC(=O)N(Cc1ccc(-c2ccccc2-c2nnn[nH]2)cc1)[C@H](C(=O)O)C(C)C | Not Active | Not Active | Not Active | Not Active | Not Active | Not Active | Not Active | Not Active | Not Active | Not Active | Not Active | Not Active | Not Active | Not Active | Not Active | – | –
2 | O=C(O)COc1ccc(C(=O)c2cccs2)c(Cl)c1Cl | Not Active | Not Active | Not Active | Not Active | Not Active | Not Active | Not Active | Not Active | Not Active | Not Active | Not Active | Not Active | Not Active | Not Active | Not Active | – | –
3 | CN1[C@@H]2CC[C@H]1C[C@@H](OC(c1ccccc1)c1ccccc1)C2 [BENZTROPINE] | – | – | – | – | – | – | – | – | – | – | – | Not Active | – | – | – | – | –
4 | C[C@@](Cc1ccc(O)c(O)c1)(NN)C(=O)O.O [CARBIDOPA] | Not Active | Not Active | Not Active | Not Active | Not Active | Not Active | Not Active | Not Active | Not Active | Not Active | Not Active | – | Not Active | Not Active | Not Active | – | –
5 | CN1CCN(C2=Nc3cc(Cl)ccc3Nc3ccccc32)CC1 [CLOZAPINE] | – | – | – | – | – | – | Not Active | – | – | – | – | Not Active | – | – | – | – | –
6 | O=C(O)CCCCC1CCSS1 (stereo not drawn) [LIPOIC ACID, ALPHA] | Not Active | Not Active | Not Active | Not Active | Not Active | Not Active | Not Active | Not Active | Not Active | Not Active | Not Active | Not Active | Not Active | Not Active | Not Active | – | –
7 | CN(C)C(=O)C(CCN1CCC(O)(c2ccc(Cl)cc2)CC1)(c1ccccc1)c1ccccc1 [LOPERAMIDE] | – | – | – | – | – | – | – | – | – | – | – | Not Active | – | – | – | – | –
8 | Clc1ccc(COC(Cn2ccnc2)c2ccc(Cl)cc2Cl)c(Cl)c1 (stereo not drawn) [MICONAZOLE] | – | – | – | – | – | – | – | – | – | – | – | Not Active | – | – | – | – | –
9 | Oc1ccc2c3c1O[C@H]1[C@@H](O)CC[C@@]4(O)[C@@H](C2)N(CC2CCC2)CC[C@]314 [NALBUPHINE] | – | – | – | – | – | – | Not Active | – | – | – | – | Not Active | – | – | Not Active | – | –
10 | C[C@]12C=CC(=O)C=C1CC[C@@H]1[C@@H]2C(=O)C[C@@]2(C)[C@H]1CC[C@]2(O)C(=O)CO [PREDNISONE] | Not Active | Not Active | Not Active | Not Active | Not Active | Not Active | Not Active | Not Active | Not Active | Not Active | Not Active | – | Not Active | Not Active | Not Active | – | –
11 | OCCOCCN1CCN(C2=Nc3ccccc3Sc3ccccc32)CC1 [QUETIAPINE] | – | – | – | – | – | – | Not Active | – | – | – | – | – | – | – | Not Active | – | –
12 | COC(=O)[C@H]1[C@H]2C[C@@H]3c4[nH]c5cc(OC)ccc5c4CCN3C[C@H]2C[C@@H](OC(=O)c2cc(OC)c(OC)c(OC)c2)[C@@H]1OC [RESERPINE] | Not Active | Not Active | Not Active | Not Active | Not Active | Not Active | Not Active | Not Active | Not Active | Not Active | Not Active | Not Active | Not Active | Not Active | Not Active | – | –
13 | O=C(O)c1ccccc1O [SALICYLIC ACID] | Not Active | Not Active | Not Active | Not Active | Not Active | Not Active | – | Not Active | Not Active | Not Active | Not Active | – | Not Active | Not Active | Not Active | – | –
14 | C[S+]([O-])c1ccc(-c2nc(-c3ccncc3)c(-c3ccc(F)cc3)[nH]2)cc1 (stereo not drawn) [SB-203580] | – | – | – | – | – | – | Not Active | – | – | – | – | Not Active | – | – | Not Active | – | –
15 | CC1CCC(NC(=O)N(CCCl)N=O)CC1 (stereo not drawn) [SEMUSTINE] | Not Active | Not Active | Not Active | Not Active | Not Active | Not Active | Not Active | Not Active | Not Active | Not Active | Not Active | Not Active | – | – | Not Active | 1.61 | 1.08
16 | O=C1C[C@@H]2OCC=C3CN4CC[C@]56c7ccccc7N1[C@H]5[C@H]2[C@H]3C[C@H]46 [STRYCHNINE] | Not Active | Not Active | Not Active | Not Active | Not Active | Not Active | – | Not Active | Not Active | Not Active | Not Active | – | Not Active | Not Active | Not Active | – | –
17 | C[N+](C)(C)CCOC(=O)CCC(=O)OCC[N+](C)(C)C.[Cl-].[Cl-] [SUCCINYLCHOLINE CHLORIDE] | Not Active | Not Active | Not Active | Not Active | Not Active | Not Active | Not Active | Not Active | Not Active | Not Active | Not Active | Not Active | Not Active | Not Active | Not Active | – | –
18 | Nc1ccc(S(=O)(=O)NC(=O)c2ccccc2)cc1 [SULFABENZAMIDE] | Not Active | Not Active | Not Active | Not Active | Not Active | Not Active | Not Active | Not Active | Not Active | Not Active | Not Active | Not Active | Not Active | Not Active | Not Active | – | –
19 | CCCCCCCCNC(C)C(O)c1ccc(SC(C)C)cc1 (stereo not drawn) [SULOCTIDIL] | – | – | – | – | Not Active | Not Active | – | Not Active | Not Active | Not Active | Not Active | Not Active | Not Active | Not Active | – | – | –
20 | O=c1[nH]c(=O)n(C2CCCO2)cc1F (stereo not drawn) [TEGAFUR] | Not Active | Not Active | Not Active | Not Active | Not Active | Not Active | Not Active | Not Active | Not Active | Not Active | Not Active | – | Not Active | Not Active | Not Active | – | –
21 | CC(=N)S [THIOACETAMIDE] | Not Active | Not Active | Not Active | Not Active | Not Active | Not Active | Not Active | Not Active | Not Active | Not Active | Not Active | – | Not Active | Not Active | Not Active | – | –
22 | Cc1ccc(C(=O)c2ccc(CC(=O)O)n2C)cc1 [TOLMETIN] | Not Active | Not Active | Not Active | Not Active | Not Active | Not Active | Not Active | Not Active | Not Active | Not Active | Not Active | – | Not Active | Not Active | Not Active | – | –
23 | CC(=O)OCC(COC(C)=O)OC(C)=O [TRIACETIN] | Not Active | Not Active | Not Active | Not Active | Not Active | Not Active | Not Active | Not Active | Not Active | Not Active | Not Active | Not Active | Not Active | Not Active | Not Active | – | –
